pIC50: −log10 of the molar value.
biological target: human TRPA1 (Homo sapiens (Human), UniProt O75762); experiment: Measurement of TRPA1 antagonist activity (intracellular calcium increase induced by allylisothiocyanate in 293T cells transfected with human TRPA1); type: cell-based; conditions: 293T cells expressing human TRPA1, allylisothiocyanate stimulation, FLIPR Calcium4 fluorescence; read-out: hTRPA1 IC50
Protocol: Measurement of TRPA1 Antagonist Activity
Human TRPA1 Expression Plasmid
Using cDNA encoding human TRPA1 (GenBank accession No. NM_007332) (manufactured by Kazusa DNA Research Institute, item No. FHC07217) as a template, primer 1 (SEQ ID NO: 1) and primer 2 (SEQ ID NO: 2), PCR by PfuUltra High-Fidelity DNA Polymerase (Stratagene) was performed, and full-length human TRPA1 gene was amplified.
A recognition site (underlined) of restriction enzyme HindIII was added to the 5′ end of human TRPA1 gene, and XbaI site (underlined) was added to the 3′ end of human TRPA1 gene, and GTT of the template sequence was changed to termination codon TAG (bold). The obtained double stranded DNA was enzyme-digested with HindIII and XbaI, and introduced into a multicloning site of expression plasmid pcDNA3.1/zeo(+) (manufactured by Invitrogen) to give a human TRPA1 expression plasmid.
Human embryonic kidney-derived 293T cells were cultured in Dulbecco's Modified Eagle Medium containing 10% fetal bovine serum, 10 unit penicillin, and 10 μg streptomycin. One day before assay, 3×10^6 of 293T cells were plated on a petri dish having a diameter of 10 cm, and cultured in a CO2 incubator for 24 hr. OPTI-MEM I Reduced Serum Media (Invitrogen) (600 μL), Mirus TransIT-293 (Mirus Bio) (18 μL), and human TRPA1 expression plasmid (6 μg) were mixed, the total amount of the mixture was added to the cells on the petri dish to allow for gene transfer. The cells were recovered about for 8 hr later, plated on a poly-D-lysine coated 384 well black/clear bottom plate at 12,000 cells/well, and cultured overnight.
Measurement of Intracellular Calcium Increase
The medium was removed from the 384 well plate, calcium indicator (Molecular Device, trade name: FLIPR Calcium4 Assay Kit) dissolved in HBSS (Thermo Fisher Scientific) (pH 7.2) containing 20 mM HEPES was added (38 μL/well), and the cells were stained in a CO2 incubator for 1 hr. The 384 well plate was stood at room temperature for not less than 15 min, set on FDSS7000 (Hamamatsu Photonics K.K.), and a test substance solution was added at 10 μL/well. After 10 min, allylisothiocyanate solution (12 μL/well) was added, the relative fluorescence intensity was measured for 5 min after addition of the allylisothiocyanate solution.
Test Substance Preparation
Preparation of Test Substance Solution and Allylisothiocyanate Solution
A test substance solution was prepared to have a composition of HBSS (Thermo Fisher Scientific) (pH 7.2) containing 0.48% dimethyl sulfoxide, a test substance at 4.8-fold concentration of the evaluation concentration, 0.1% bovine serum albumin and 20 mM HEPES. An allylisothiocyanate solution was prepared to have a composition of HBSS (Thermo Fisher Scientific) (pH 7.2) containing 0.1% dimethyl sulfoxide, 100 μM allylisothiocyanate, 0.1% bovine serum albumin and 20 mM HEPES.
Calculation of Antagonist Activity
The activity rate of a test substance at each concentration was calculated, wherein the relative fluorescence intensity change of a well free of a test substance and containing allylisothiocyanate is 100% activity rate, and the relative fluorescence intensity change of a well free of a test substance and allylisothiocyanate is 0% activity rate. The inhibitory rate of a test substance at each concentration was calculated by subtracting the activity rate of the test substance from 100% activity rate, and the concentration of a test substance showing 50% inhibitory rate was calculated as IC50 from the sigmoid approximate curve by XLfit (idbs).

Sequence of human TRPA1 (O75762 whole entry): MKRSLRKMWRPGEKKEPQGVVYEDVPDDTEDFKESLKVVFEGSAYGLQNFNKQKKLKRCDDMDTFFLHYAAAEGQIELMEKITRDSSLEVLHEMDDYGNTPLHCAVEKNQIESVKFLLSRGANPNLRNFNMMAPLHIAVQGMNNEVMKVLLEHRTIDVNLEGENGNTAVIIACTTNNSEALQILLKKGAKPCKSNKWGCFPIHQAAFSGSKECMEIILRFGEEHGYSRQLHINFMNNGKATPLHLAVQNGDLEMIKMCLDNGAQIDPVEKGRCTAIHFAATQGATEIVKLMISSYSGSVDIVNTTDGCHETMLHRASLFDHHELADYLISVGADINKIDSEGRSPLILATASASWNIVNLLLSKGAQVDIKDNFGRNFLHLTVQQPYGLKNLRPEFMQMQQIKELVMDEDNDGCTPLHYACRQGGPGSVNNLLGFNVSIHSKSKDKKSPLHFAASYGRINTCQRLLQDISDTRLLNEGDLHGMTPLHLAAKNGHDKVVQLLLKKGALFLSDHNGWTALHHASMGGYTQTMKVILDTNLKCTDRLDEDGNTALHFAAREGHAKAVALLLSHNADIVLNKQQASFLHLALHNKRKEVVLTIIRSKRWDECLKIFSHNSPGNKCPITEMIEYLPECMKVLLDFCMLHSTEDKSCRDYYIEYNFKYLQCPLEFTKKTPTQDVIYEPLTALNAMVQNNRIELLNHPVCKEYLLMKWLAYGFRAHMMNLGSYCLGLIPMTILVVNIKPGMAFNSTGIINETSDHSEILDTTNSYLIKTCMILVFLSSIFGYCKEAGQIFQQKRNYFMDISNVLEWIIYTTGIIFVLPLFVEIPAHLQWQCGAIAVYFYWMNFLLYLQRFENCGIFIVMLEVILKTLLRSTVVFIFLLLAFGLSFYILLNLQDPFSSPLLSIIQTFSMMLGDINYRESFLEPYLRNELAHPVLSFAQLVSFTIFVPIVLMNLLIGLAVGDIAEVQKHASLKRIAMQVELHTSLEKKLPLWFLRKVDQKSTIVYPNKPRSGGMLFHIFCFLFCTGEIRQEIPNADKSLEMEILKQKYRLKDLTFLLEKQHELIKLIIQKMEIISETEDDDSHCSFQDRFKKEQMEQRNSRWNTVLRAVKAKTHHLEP

Compound	pIC50
CC(C)n1c(=O)c(CNC(=O)[C@@H]2CCCN2S(=O)(=O)c2cc3cc(F)ccc3o2)cn(-c2ccc(C(F)(F)F)cc2)c1=O [Example 3, (2S)-1-(5-fluorobenzofuran-2-yl)sulfonyl-N-[[3-isopropyl-2,4-dioxo-1-[4-(trifluoromethyl)phenyl]-pyrimidin-5-yl]methyl]pyrrolidine-2-carboxamide]	8.14
CC(C)n1c(=O)c(CNC(=O)[C@@H]2CCCN2S(=O)(=O)c2cc3ccccc3o2)cn(-c2ccc(F)cc2)c1=O [Example 38, (2S)-1-(benzofuran-2-ylsulfonyl)-N-[[1-(4-fluorophenyl)-3-isopropyl-2,4-dioxo-pyrimidin-5-yl]methyl]pyrrolidine-2-carboxamide]	6.62
CC(C)n1cc(-c2ccc(C(F)(F)F)nc2)cc(CNC(=O)[C@@H]2CCCN2S(=O)(=O)c2cc3cc(F)ccc3o2)c1=O [Example 37, (2S)-1-(5-fluorobenzofuran-2-yl)sulfonyl-N-[[1-isopropyl-2-oxo-5-[6-(trifluoromethyl)-3-pyridyl]-3-pyridyl]methyl]pyrrolidine-2-carboxamide]	7.51
CC(C)n1c(=O)c(CNC(=O)[C@@H]2CCCN2S(=O)(=O)c2ccc(F)cc2)cn(-c2ccc(C(F)(F)F)cc2)c1=O [Example 12, (2S)-1-(4-fluorophenyl)sulfonyl-N-[[3-isopropyl-2,4-dioxo-1-[4-(trifluoromethyl)phenyl]pyrimidin-5-yl]methyl]pyrrolidine-2-carboxamide]	6.92
CC(C)n1c(=O)c(CNC(=O)[C@@H]2CCCN2S(=O)(=O)c2cc3ccccc3s2)cn(-c2ccc(C(F)(F)F)cc2)c1=O [Example 19, (2S)-1-(benzothiophen-2-ylsulfonyl)-N-[[3-isopropyl-2,4-dioxo-1-[4-(trifluoromethyl)phenyl]-pyrimidin-5-yl]methyl]pyrrolidine-2-carboxamide]	7.25
CC(C)n1c(=O)c(CNC(=O)[C@@H]2CCCN2S(=O)(=O)c2cc3ccccc3o2)cn(-c2ccc(C(F)(F)F)cn2)c1=O [Example 33, (2S)-1-(benzofuran-2-ylsulfonyl)-N-[[3-isopropyl-2,4-dioxo-1-[5-(trifluoromethyl)-2-pyridyl]pyrimidin-5-yl]methyl]pyrrolidine-2-carboxamide]	7.36
O=C(NCc1ccc(=O)n(-c2ccc(C(F)(F)F)cc2)c1)[C@@H]1CCCN1S(=O)(=O)c1cc2ccccc2o1 [Example 14, (2S)-1-(benzofuran-2-ylsulfonyl)-N-[[6-oxo-1-[4-(trifluoromethyl)phenyl]-3-pyridyl]methyl]pyrrolidine-2-carboxamide]	6.80
CC(C)n1cc(-c2ccc(C(F)(F)F)cc2)cc(CNC(=O)[C@@H]2CCCN2S(=O)(=O)c2cc3c(F)cccc3o2)c1=O [Example 44, (2S)-1-(4-fluorobenzofuran-2-yl)sulfonyl-N-[[1-isopropyl-2-oxo-5-[4-(trifluoromethyl)phenyl]-3-pyridyl]methyl]pyrrolidine-2-carboxamide]	6.36
CC(C)n1c(=O)c(CNC(=O)[C@@H]2CCCN2S(=O)(=O)c2ccc(Cl)s2)cn(-c2ccc(C(F)(F)F)cc2)c1=O [Example 11, (2S)-1-[(5-chloro-2-thienyl)sulfonyl]-N-[[3-isopropyl-2,4-dioxo-1-[4-(trifluoromethyl)phenyl]-pyrimidin-5-yl]methyl]pyrrolidine-2-carboxamide]	7.48
CC(C)n1cc(CNC(=O)[C@@H]2CCCN2S(=O)(=O)c2cc3c(F)cccc3o2)cc(-c2ccc(C(F)(F)F)cc2)c1=O [Example 45, (2S)-1-(4-fluorobenzofuran-2-yl)sulfonyl-N-[[1-isopropyl-6-oxo-5-[4-(trifluoromethyl)phenyl]-3-pyridyl]methyl]pyrrolidine-2-carboxamide]	7.07
CC(C)n1c(=O)c(CNC(=O)[C@@H]2CCN2S(=O)(=O)c2cc3cc(F)ccc3o2)cn(-c2ccc(C(F)(F)F)cc2)c1=O [Example 18, (2S)-1-(5-fluorobenzofuran-2-yl)sulfonyl-N-[[3-isopropyl-2,4-dioxo-1-[4-(trifluoromethyl)phenyl]-pyrimidin-5-yl]methyl]azetidine-2-carboxamide]	8.05
Cc1ccc2oc(S(=O)(=O)N3CCC[C@H]3C(=O)NCc3cn(-c4ccc(C(F)(F)F)cc4)c(=O)n(C(C)C)c3=O)cc2c1 [Example 25, (2S)-N-[[3-isopropyl-2,4-dioxo-1-[4-(trifluoromethyl)phenyl]pyrimidin-5-yl]methyl]-1-(5-methylbenzofuran-2-yl)sulfonyl-pyrrolidine-2-carboxamide]	6.38
CC(C)n1c(=O)c(CNC(=O)[C@@H]2[C@@H](O)CCN2S(=O)(=O)c2cc3cc(F)ccc3o2)cn(-c2ccc(C(F)(F)F)cn2)c1=O [Example 35, (2S,3S)-1-(5-fluorobenzofuran-2-yl)sulfonyl-3-hydroxy-N-[[3-isopropyl-2,4-dioxo-1-[5-(trifluoromethyl)-2-pyridyl]pyrimidin-5-yl]methyl]pyrrolidine-2-carboxamide]	6.80
CC(C)n1cc(CNC(=O)[C@@H]2CCCN2S(=O)(=O)c2cc3ccccc3o2)cc(-c2ccc(C(F)(F)F)cn2)c1=O [Example 50, (2S)-1-(benzofuran-2-ylsulfonyl)-N-[[1-isopropyl-6-oxo-5-[5-(trifluoromethyl)-2-pyridyl]-3-pyridyl]methyl]pyrrolidine-2-carboxamide]	6.96
CC(C)n1c(=O)c(CNC(=O)[C@@H]2CCCN2S(=O)(=O)c2cc3ccccc3o2)cn(-c2ccc(Cl)cc2)c1=O [Example 40, (2S)-1-(benzofuran-2-ylsulfonyl)-N-[[1-(4-chlorophenyl)-3-isopropyl-2,4-dioxo-pyrimidin-5-yl]methyl]pyrrolidine-2-carboxamide]	7.07
CC(C)n1c(=O)c(CNC(=O)[C@@H]2[C@@H](O)CCN2S(=O)(=O)c2cc3cc(F)ccc3o2)cn(-c2ccc(C(F)(F)F)nc2)c1=O [Example 31, (2S,3S)-1-(5-fluorobenzofuran-2-yl)sulfonyl-3-hydroxy-N-[[3-isopropyl-2,4-dioxo-1-[6-(trifluoromethyl)-3-pyridyl]pyrimidin-5-yl]methyl]pyrrolidine-2-carboxamide]	6.42
CC(C)n1cc(CNC(=O)[C@@H]2CCCN2S(=O)(=O)c2cc3cc(F)ccc3o2)cc(-c2ccc(C(F)(F)F)cn2)c1=O [Example 51, (2S)-1-(5-fluorobenzofuran-2-yl)sulfonyl-N-[[1-isopropyl-6-oxo-5-[5-(trifluoromethyl)-2-pyridyl]-3-pyridyl]methyl]pyrrolidine-2-carboxamide]	7.09
CC(C)n1c(=O)c(CNC(=O)[C@@H]2CC(F)(F)CN2S(=O)(=O)c2cc3cc(F)ccc3o2)cn(-c2ccc(C(F)(F)F)cc2)c1=O [Example 17, (2S)-4,4-difluoro-1-(5-fluorobenzofuran-2-yl)sulfonyl-N-[[3-isopropyl-2,4-dioxo-1-[4-(trifluoromethyl)phenyl]pyrimidin-5-yl]methyl]pyrrolidine-2-carboxamide]	7.34
CCn1c(=O)c(CNC(=O)[C@@H]2CCCN2S(=O)(=O)c2cc3cc(F)ccc3o2)cn(-c2ccc(C(F)(F)F)cc2)c1=O [Example 4, (2S)-1-(5-fluorobenzofuran-2-yl)sulfonyl-N-[[3-ethyl-2,4-dioxo-1-[4-(trifluoromethyl)phenyl]pyrimidin-5-yl]methyl]pyrrolidine-2-carboxamide]	7.96
CC(C)n1cc(CNC(=O)[C@@H]2CCCN2S(=O)(=O)c2cc3cnccc3o2)cc(-c2ccc(C(F)(F)F)cc2)c1=O [Example 46, (2S)-1-fro[3,2-c]pyridin-2-ylsulfonyl-N-[[1-isopropyl-6-oxo-5-[4-(trifluoromethyl)phenyl]-3-pyridyl]methyl]pyrrolidine-2-carboxamide]	7.01
